Laboratory results: the CheMixHub viscosity set
“And” between values parts separate entries of the source, which are not always exact repeats. Equal values may be shown once. ± gives the uncertainty stated by the source.

Test: xn = mol fraction of the nth substance listed

CCCCCCCCCO + CCO
viscosity [mPa·s], 101 kPa
Settings | 298.15 K | 308.15 K | 318.15 K
x2 = 0.05 | 8.632 ± 0.082 | 6.193 ± 0.058 | 4.473 ± 0.043
x2 = 0.1 | 8.168 ± 0.078 | 5.872 ± 0.055 | 4.273 ± 0.04
x2 = 0.15 | 7.706 ± 0.074 | 5.558 ± 0.053 | 4.073 ± 0.038
x2 = 0.2 | 7.247 ± 0.069 | 5.25 ± 0.05 | 3.874 ± 0.036
x2 = 0.25 | 6.791 ± 0.065 | 4.945 ± 0.047 | 3.675 ± 0.034
x2 = 0.3 | 6.34 ± 0.06 | 4.645 ± 0.044 | 3.475 ± 0.032
x2 = 0.35 | 5.893 ± 0.056 | 4.347 ± 0.04 | 3.275 ± 0.03
x2 = 0.4 | 5.453 ± 0.052 | 4.052 ± 0.037 | 3.074 ± 0.028
x2 = 0.45 | 5.019 ± 0.047 | 3.759 ± 0.034 | 2.871 ± 0.026
x2 = 0.5 | 4.593 ± 0.043 | 3.469 ± 0.032 | 2.668 ± 0.024
x2 = 0.55 | 4.176 ± 0.039 | 3.182 ± 0.029 | 2.465 ± 0.022
x2 = 0.6 | 3.769 ± 0.035 | 2.898 ± 0.026 | 2.261 ± 0.02
x2 = 0.65 | 3.375 ± 0.031 | 2.619 ± 0.023 | 2.059 ± 0.018
x2 = 0.7 | 2.993 ± 0.027 | 2.345 ± 0.021 | 1.858 ± 0.016
x2 = 0.75 | 2.627 ± 0.023 | 2.078 ± 0.018 | 1.66 ± 0.015
x2 = 0.8 | – | 1.818 ± 0.016 | 1.466 ± 0.013
x2 = 0.85 | 1.946 ± 0.017 | 1.569 ± 0.014 | 1.277 ± 0.011
x2 = 0.9 | 1.635 ± 0.014 | 1.331 ± 0.012 | 1.094 ± 0.0096
x2 = 0.95 | 1.346 ± 0.012 | 1.108 ± 0.0097 | 0.9197 ± 0.0081

CCCCCCCCCO + C1CCCCC1
viscosity [mPa·s]
Settings | 293.15 K | 303.15 K | 313.15 K | 323.15 K
100 kPa, x2 = 0.0822 | 9.85 ± 0.79 | 6.89 ± 0.55 | 4.93 ± 0.4 | 3.66 ± 0.29
100 kPa, x2 = 0.1616 | 8.5 ± 0.68 | 6 ± 0.48 | 4.32 ± 0.35 | 3.23 ± 0.26
100 kPa, x2 = 0.2413 | 7.2 ± 0.58 | 5.17 ± 0.42 | 3.76 ± 0.3 | 2.83 ± 0.23
100 kPa, x2 = 0.3502 | 5.63 ± 0.45 | 4.15 ± 0.33 | 3.05 ± 0.25 | 2.33 ± 0.19
100 kPa, x2 = 0.4404 | 4.51 ± 0.36 | 3.44 ± 0.28 | 2.54 ± 0.2 | 1.96 ± 0.16
100 kPa, x2 = 0.5611 | 3.29 ± 0.26 | 2.63 ± 0.21 | 1.97 ± 0.16 | 1.56 ± 0.13
100 kPa, x2 = 0.6503 | 2.57 ± 0.21 | 2.13 ± 0.17 | 1.6 ± 0.1 | 1.3 ± 0.1
100 kPa, x2 = 0.7412 | 1.96 ± 0.16 | 1.68 ± 0.14 | 1.3 ± 0.1 | 1.08 ± 0.09
100 kPa, x2 = 0.8514 | 1.42 ± 0.11 | 1.26 ± 0.1 | 1.03 ± 0.08 | 0.86 ± 0.07
100 kPa, x2 = 0.9397 | 1.11 ± 0.09 | 0.97 ± 0.08 | 0.81 ± 0.07 | 0.7 ± 0.06
101.33 kPa, x1 = 0.105 | – | 1.068 ± 0.013 | – | –
101.33 kPa, x1 = 0.2105 | – | 1.397 ± 0.017 | – | –
101.33 kPa, x1 = 0.311 | – | 1.784 ± 0.021 | – | –
101.33 kPa, x1 = 0.3969 | – | 2.186 ± 0.025 | – | –
101.33 kPa, x1 = 0.4955 | – | 2.735 ± 0.031 | – | –
101.33 kPa, x1 = 0.6055 | – | 3.462 ± 0.039 | – | –
101.33 kPa, x1 = 0.6959 | – | 4.153 ± 0.047 | – | –
101.33 kPa, x1 = 0.801 | – | 5.108 ± 0.057 | – | –
101.33 kPa, x1 = 0.9054 | – | 6.215 ± 0.066 | – | –

O=C[C@H](O)[C@@H](O)[C@@H](O)CO + O
viscosity, 101 kPa
Settings | 293.15 K | 298.15 K | 303.15 K | 308.15 K | 313.15 K | 318.15 K
x1 = 0.0031 | 1.059 ± 0.013 mPa·s | – | 0.8425 ± 0.011 mPa·s | 0.7555 ± 0.0094 mPa·s | 0.6857 ± 0.0085 mPa·s | 0.6277 ± 0.0078 mPa·s
x1 = 0.006 | 1.122 ± 0.024 mPa·s and 1.122 ± 0.014 mPa·s (2×) | 0.9982 ± 0.021 mPa·s and 0.9982 ± 0.012 mPa·s (2×) | 0.8927 ± 0.019 mPa·s and 0.8927 ± 0.011 mPa·s (2×) | 0.7947 ± 0.017 mPa·s and 0.7947 ± 0.0098 mPa·s and 0.7947 ± 0.0099 mPa·s | 0.7187 ± 0.015 mPa·s and 0.7187 ± 0.0089 mPa·s (2×) | 0.6585 ± 0.014 mPa·s and 0.6585 ± 0.0081 mPa·s and 0.6585 ± 0.0082 mPa·s
x1 = 0.0063 | 1.122 ± 0.014 mPa·s | 0.9982 ± 0.013 mPa·s | 0.8927 ± 0.011 mPa·s | 0.7947 ± 0.01 mPa·s | 0.7187 ± 0.009 mPa·s | 0.6585 ± 0.0082 mPa·s
x1 = 0.013 | 1.232 ± 0.026 mPa·s and 1.232 ± 0.015 mPa·s (2×) | – | 0.9886 ± 0.021 mPa·s and 0.9886 ± 0.012 mPa·s (2×) | 0.8863 ± 0.019 mPa·s and 0.8863 ± 0.011 mPa·s (2×) | 0.7996 ± 0.017 mPa·s and 0.7996 ± 0.0099 mPa·s (2×) | 0.7229 ± 0.015 mPa·s and 0.7229 ± 0.0089 mPa·s and 0.7229 ± 0.009 mPa·s

CCC1CCCCC1 + CC(=O)CC(C)C
298.15 K, 101 kPa
Settings | viscosity [mPa·s]
x2 = 0.1314 | 0.695 ± 0.007
x2 = 0.2549 | 0.645 ± 0.007
x2 = 0.3669 | 0.621 ± 0.006
x2 = 0.473 | 0.6 ± 0.006
x2 = 0.5856 | 0.583 ± 0.006
x2 = 0.7041 | 0.567 ± 0.006
x2 = 0.8091 | 0.556 ± 0.006
x2 = 0.9079 | 0.547 ± 0.006

CCCCCCCCCO + CCCCCCO
viscosity [mPa·s], 101.8 kPa
Settings | x2 = 0.1351 | x2 = 0.4186 | x2 = 0.5817 | x2 = 0.7358 | x2 = 0.9282
298.15 K | 8.731 ± 0.39 | 7.177 ± 0.38 | 6.384 ± 0.37 | 5.606 ± 0.36 | 4.847 ± 0.35
308.15 K | 6.206 ± 0.36 | 5.187 ± 0.35 | 4.651 ± 0.34 | 4.127 ± 0.34 | 3.596 ± 0.33
318.15 K | 4.51 ± 0.34 | 3.821 ± 0.33 | 3.453 ± 0.33 | 3.093 ± 0.33 | 2.717 ± 0.33
